Test results published in ChEMBL document CHEMBL1201862, “PubChem BioAssay data set” (2004).
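Growth conditions: 96-well plates. Treatment: test compound, 48 hours, 5 concentrations. Analysis: linear interpolation between bracketing concentrations; unreached endpoints set to highest concentration. GI50 is the concentration that inhibits growth by half.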 Active and inactive are the calls of the source. Rule as the data show it: active = GI50 up to about 1.1 µM and inactive = higher.

What was measured:
Experiment in all cases: NCI-60 cell line screen, 48 h
ACHN = test system: ACHN
LOX IMVI = test system: LOX IMVI
RXF 393 = test system: RXF 393
UO-31 = test system: UO-31
NCI-H522 = test system: NCI-H522
SNB-75 = test system: SNB-75
NCI-H460 = test system: NCI-H460
SN12C = test system: SN12C
HCT-116 = test system: HCT-116
A498 = test system: A498
CAKI-1 = test system: CAKI-1
SNB-19 = test system: SNB-19
BT-549 = test system: BT-549
CCRF-CEM = test system: CCRF-CEM
HCT-15 = test system: HCT-15
NCI-H23 = test system: NCI-H23
OVCAR-5 = test system: OVCAR-5
M14 = test system: M14
SK-MEL-2 = test system: SK-MEL-2
U-251 = test system: U-251
NCI-H226 = test system: NCI-H226
HOP-92 = test system: HOP-92
SK-MEL-28 = test system: SK-MEL-28
EKVX = test system: EKVX
DU-145 = test system: DU-145
UACC-257 = test system: UACC-257
OVCAR-8 = test system: OVCAR-8
MDA-MB-231 = test system: MDA-MB-231
SK-OV-3 = test system: SK-OV-3
SF-295 = test system: SF-295
MDA-N = test system: MDA-N
T47D = test system: T47D
Hs-578T = test system: Hs-578T
SK-MEL-5 = test system: SK-MEL-5
KM12 = test system: KM12
A549 = test system: A549
MCF7 = test system: MCF7
HCC 2998 = test system: HCC 2998
NCI/ADR-RES = test system: NCI/ADR-RES
Malme-3M = test system: Malme-3M
MDA-MB-435 = test system: MDA-MB-435
HL-60 = test system: HL-60
786-0 = test system: 786-0
HT-29 = test system: HT-29
MOLT-4 = test system: MOLT-4
OVCAR-4 = test system: OVCAR-4
SW-620 = test system: SW-620
SF-268 = test system: SF-268
PC-3 = test system: PC-3
SR = test system: SR
HOP-62 = test system: HOP-62
TK-10 = test system: TK-10
COLO 205 = test system: COLO 205
SF-539 = test system: SF-539
UACC-62 = test system: UACC-62
K562 = test system: K562
OVCAR-3 = test system: OVCAR-3
IGROV-1 = test system: IGROV-1

O=C(c1cccs1)N(Cc1cccnc1)C(=S)N(Cc1cccnc1)C(=O)c1cccs1
GI50 (ACHN): > 100 µM (inactive) | GI50 (LOX IMVI): 5.5 µM (inactive) | GI50 (RXF 393): > 100 µM (inactive) | GI50 (UO-31): > 100 µM (inactive) | GI50 (NCI-H522): 36.5 µM (inactive) | GI50 (SNB-75): 37.8 µM (inactive) | GI50 (NCI-H460): > 100 µM (inactive) | GI50 (SN12C): 32.6 µM (inactive) | GI50 (HCT-116): 45.8 µM (inactive) | GI50 (A498): 32.3 µM (inactive) | GI50 (CAKI-1): > 100 µM (inactive) | GI50 (SNB-19): 35.5 µM (inactive) | GI50 (BT-549): > 100 µM (inactive) | GI50 (CCRF-CEM): > 100 µM (inactive) | GI50 (HCT-15): > 100 µM | GI50 (NCI-H23): > 100 µM (inactive) | GI50 (OVCAR-5): > 100 µM (inactive) | GI50 (M14): 91.2 µM (inactive) | GI50 (SK-MEL-2): 26.2 µM (inactive) | GI50 (U-251): 32.7 µM (inactive) | GI50 (NCI-H226): > 100 µM (inactive) | GI50 (HOP-92): > 100 µM (inactive) | GI50 (SK-MEL-28): > 100 µM (inactive) | GI50 (EKVX): 44.1 µM (inactive) | GI50 (DU-145): > 100 µM (inactive) | GI50 (UACC-257): > 100 µM (inactive) | GI50 (OVCAR-8): 50.4 µM (inactive) | GI50 (MDA-MB-231): > 100 µM (inactive) | GI50 (SK-OV-3): 37.8 µM (inactive) | GI50 (SF-295): 32.2 µM (inactive) | GI50 (MDA-N): 33.4 µM (inactive) | GI50 (T47D): > 100 µM (inactive) | GI50 (Hs-578T): 53.2 µM (inactive) | GI50 (SK-MEL-5): > 100 µM (inactive) | GI50 (KM12): 24.4 µM (inactive) | GI50 (A549): > 100 µM (inactive) | GI50 (MCF7): 4.85 µM (inactive) | GI50 (HCC 2998): > 100 µM (inactive) | GI50 (NCI/ADR-RES): > 100 µM (inactive) | GI50 (Malme-3M): > 100 µM (inactive) | GI50 (MDA-MB-435): > 100 µM (inactive) | GI50 (HL-60): > 100 µM (inactive) | GI50 (786-0): 3.56 µM (inactive) | GI50 (HT-29): > 100 µM (inactive) | GI50 (MOLT-4): > 100 µM (inactive) | GI50 (OVCAR-4): > 100 µM (inactive) | GI50 (SW-620): > 100 µM (inactive) | GI50 (SF-268): 35.6 µM (inactive) | GI50 (PC-3): 41.8 µM (inactive) | GI50 (SR): 7.82 µM (inactive) | GI50 (HOP-62): 35.6 µM (inactive) | GI50 (TK-10): 34 µM (inactive) | GI50 (COLO 205): > 100 µM (inactive) | GI50 (SF-539): 29.9 µM (inactive) | GI50 (UACC-62): 60.7 µM (inactive) | GI50 (K562): 26.4 µM (inactive) | GI50 (OVCAR-3): 53.7 µM (inactive)

Cn1c(-c2cccs2)cc(-c2ccsc2)c1-c1cccs1
GI50 (ACHN): 61.1 µM (inactive) | GI50 (RXF 393): > 100 µM (inactive) | GI50 (UO-31): > 100 µM (inactive) | GI50 (NCI-H522): 72.8 µM (inactive) | GI50 (SNB-75): 62.1 µM (inactive) | GI50 (NCI-H460): 48.1 µM (inactive) | GI50 (SN12C): > 100 µM (inactive) | GI50 (HCT-116): 16.3 µM (inactive) | GI50 (A498): > 100 µM (inactive) | GI50 (CAKI-1): > 100 µM (inactive) | GI50 (SNB-19): > 100 µM (inactive) | GI50 (BT-549): > 100 µM (inactive) | GI50 (CCRF-CEM): > 100 µM (inactive) | GI50 (HCT-15): 88.9 µM | GI50 (NCI-H23): 45.9 µM (inactive) | GI50 (OVCAR-5): > 100 µM (inactive) | GI50 (M14): 92.3 µM (inactive) | GI50 (U-251): > 100 µM (inactive) | GI50 (NCI-H226): > 100 µM (inactive) | GI50 (HOP-92): > 100 µM (inactive) | GI50 (SK-MEL-28): 99.1 µM (inactive) | GI50 (EKVX): 10.2 µM (inactive) | GI50 (DU-145): 87.1 µM (inactive) | GI50 (UACC-257): 52.2 µM (inactive) | GI50 (OVCAR-8): > 100 µM (inactive) | GI50 (MDA-MB-231): 99.1 µM (inactive) | GI50 (SK-OV-3): > 100 µM (inactive) | GI50 (SF-295): > 100 µM (inactive) | GI50 (MDA-N): 55.3 µM (inactive) | GI50 (T47D): 3.04 µM (inactive) | GI50 (IGROV-1): > 100 µM (inactive) | GI50 (Hs-578T): 96.4 µM (inactive) | GI50 (SK-MEL-5): > 10 µM (inactive) | GI50 (KM12): > 100 µM (inactive) | GI50 (A549): > 100 µM (inactive) | GI50 (MCF7): 5.97 µM (inactive) | GI50 (HCC 2998): > 100 µM (inactive) | GI50 (NCI/ADR-RES): > 100 µM (inactive) | GI50 (Malme-3M): > 100 µM (inactive) | GI50 (MDA-MB-435): 57.4 µM (inactive) | GI50 (786-0): > 100 µM (inactive) | GI50 (HT-29): 55.3 µM (inactive) | GI50 (MOLT-4): 55.7 µM (inactive) | GI50 (OVCAR-4): > 100 µM (inactive) | GI50 (SW-620): > 100 µM (inactive) | GI50 (SF-268): > 100 µM (inactive) | GI50 (PC-3): > 100 µM (inactive) | GI50 (SR): > 100 µM (inactive) | GI50 (HOP-62): > 100 µM (inactive) | GI50 (TK-10): > 100 µM (inactive) | GI50 (COLO 205): 17.3 µM (inactive) | GI50 (SF-539): > 100 µM (inactive) | GI50 (UACC-62): 42.6 µM (inactive) | GI50 (K562): 75.7 µM (inactive) | GI50 (OVCAR-3): 76.7 µM (inactive)
